According to patent US8835647B2, “2-((R)-2-methylpyrrolidin-2-yl)-1H-benzimidazole-4-carboxamide crystalline form 1” (AbbVie Inc., priority 2007, dated 2014):

How the values were obtained:
[1] = at 25° C.
tumor = tumor bearing animals; cited from earlier work

Structure (SMILES) | thermodynamic stability of crystalline form [1] | tumor growth (tumor)
C[C@]1(c2nc3c(C(N)=O)cccc3[nH]2)CCCN1 [ABT-888 Crystalline Form 1, 2-((R)-2-Methylpyrrolidin-2-yl)-1H-benzimidazole-4-carboxamide Crystalline Form 1] | most thermodynamically stable crystalline form of ABT-888 | –
C[C@]1(c2nc3c(C(N)=O)cccc3[nH]2)CCCN1 [ABT-888, 2-((R)-2-methylpyrrolidin-2-yl)-1H-benzimidazole-4-carboxamide] | – | limit tumor growth
